In PubChem BioAssay (NCI):
“And” between values parts separate entries of the source, which are not always exact repeats. Equal values may be shown once.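 Each compound was tested at five concentrations against cells in 96-well plates for 48 hours. The concentration for 50% growth inhibition is given as GI50. TGI denotes the concentration required for complete inhibition of growth.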

Experiments:
Assay in all cases: inhibition of tumour cell growth, NCI panel, 48 h
[1] = system: SNB-75 CNS
[2] = system: NCI-H226 lung
[3] = system: MDA-N
[4] = system: UACC-62 melanoma
[5] = system: MOLT-4 leukemia
[6] = system: SN12C renal
[7] = system: OVCAR-3 ovarian
[8] = system: BT-549 breast
[9] = system: ACHN renal
[10] = system: HCT-15 colon
[11] = system: OVCAR-8 ovarian
[12] = system: HCC-2998 colon

## O=C(N/N=C/c1ccc([N+](=O)[O-])o1)c1ccc(C(=O)N/N=C/c2ccc([N+](=O)[O-])o2)cc1
[1]
  TGI: > 100 µM
[2]
  TGI: > 100 µM
[3]
  TGI: 50.2 µM
[4]
  TGI: > 100 µM
[5]
  TGI: > 100 µM
[6]
  TGI: > 100 µM
[7]
  TGI: 73.9 µM
[8]
  TGI: > 100 µM
[9]
  TGI: > 100 µM
[10]
  TGI: > 100 µM
[11]
  TGI: 77.9 µM

## Cc1cc(N=Nc2c(O)ccc3ccccc23)ccc1N=Nc1cccc([N+](C)(C)C)c1
[1]
  TGI: 26.3 µM
[2]
  TGI: 30.2 µM
[3]
  TGI: > 100 µM
[4]
  TGI: > 61.6 µM
[5]
  TGI: > 100 µM
[6]
  TGI: > 80 µM
[7]
  TGI: 41 µM
[8]
  TGI: 15.7 µM
[9]
  TGI: > 84.7 µM
[10]
  TGI: > 84.4 µM
[12]
  TGI: > 100 µM
[11]
  TGI: 57.3 µM

## COc1cc(NC(C)=O)ccc1C(=O)NN1C(=O)C(Cl)C1c1ccco1 (stereo unspecified)
[1]
  TGI: > 100 µM
[2]
  TGI: > 100 µM
[3]
  TGI: > 100 µM
[4]
  TGI: > 100 µM
[5]
  TGI: > 100 µM
[6]
  TGI: > 100 µM
[7]
  TGI: > 100 µM
[8]
  TGI: > 100 µM
[9]
  TGI: > 100 µM
[10]
  TGI: > 100 µM
[11]
  TGI: > 100 µM

## CC(=O)NNc1nc(C)c(C(/C=C/c2ccc([N+](=O)[O-])cc2)=N/NC(N)=S)s1
[1]
  TGI: > 100 µM
[2]
  TGI: > 100 µM
[3]
  TGI: > 100 µM
[4]
  TGI: > 100 µM
[5]
  TGI: > 100 µM
[6]
  TGI: > 100 µM
[7]
  TGI: > 100 µM
[8]
  TGI: > 100 µM
[9]
  TGI: > 100 µM
[10]
  TGI: > 100 µM
[12]
  TGI: > 100 µM
[11]
  TGI: > 100 µM

## Cn1c(-c2cccs2)cc(-c2cccs2)c1-c1ccco1
[1]
  TGI: > 100 µM
[2]
  TGI: > 100 µM
[3]
  TGI: > 100 µM
[4]
  TGI: > 100 µM
[5]
  TGI: > 100 µM
[6]
  TGI: > 100 µM
[7]
  TGI: > 100 µM
[8]
  TGI: > 100 µM
[9]
  TGI: > 100 µM
[10]
  TGI: > 100 µM
[12]
  TGI: > 100 µM
[11]
  TGI: > 100 µM

## CCN(CC)CCN1C(=O)c2c(c(-c3ccccc3)c3ccccc3c2-c2ccccc2)C1=O
[1]
  TGI: > 100 µM
[2]
  TGI: > 100 µM
[3]
  TGI: > 100 µM
[4]
  TGI: > 100 µM
[5]
  TGI: > 100 µM
[6]
  TGI: > 100 µM
[8]
  TGI: > 100 µM
[9]
  TGI: > 100 µM
[10]
  TGI: > 100 µM
[12]
  TGI: > 100 µM
[11]
  TGI: > 100 µM

## COc1cc(C2SC(N)=Nc3c2c(C)nn3C(=O)c2ccccc2O)ccc1O (stereo unspecified)
[1]
  TGI: > 10 µM
[2]
  TGI: > 6.18 µM
[3]
  TGI: > 10 µM
[4]
  TGI: > 10 µM
[5]
  TGI: > 10 µM
[6]
  TGI: > 10 µM
[7]
  TGI: > 10 µM
[8]
  TGI: > 10 µM
[9]
  TGI: > 10 µM
[10]
  TGI: > 10 µM
[12]
  TGI: > 10 µM
[11]
  TGI: > 10 µM

## O=C1O[C@H]2[C@H](O)[C@@H](OC(=O)c3cc(O)c(O)c4c3[C@@H]3C1=CC(=O)C(O)(O)C3(O)O4)[C@H](OC(=O)c1cc(O)c(O)c(O)c1)O[C@@H]2CO (stereo partly specified)
[1]
  TGI: > 100 µM
[2]
  TGI: > 100 µM
[3]
  TGI: > 100 µM
[4]
  TGI: > 100 µM
[5]
  TGI: > 100 µM
[6]
  TGI: > 100 µM
[7]
  TGI: > 100 µM
[8]
  TGI: > 100 µM
[9]
  TGI: > 100 µM
[10]
  TGI: > 100 µM
[12]
  TGI: > 100 µM
[11]
  TGI: > 100 µM

## CC(=O)Oc1cc2c(c3ncccc13)OC(C)(C)C2
[1]
  TGI: 17.2 µM
[2]
  TGI: 33.1 µM
[3]
  TGI: 10.9 µM
[4]
  TGI: > 100 µM
[5]
  TGI: 29.9 µM
[6]
  TGI: 25.9 µM
[7]
  TGI: 55 µM
[8]
  TGI: > 100 µM
[9]
  TGI: 23.9 µM
[10]
  TGI: 46.5 µM
[12]
  TGI: > 100 µM
[11]
  TGI: 74.8 µM

## C[C@]12Cc3cnn(-c4ccc(F)cc4)c3NC1CC[C@@H]1C2CC[C@@]2(C)C1CC[C@@H]2O (stereo partly specified)
[1]
  TGI: 13.3 µM
[2]
  TGI: 28 µM
[3]
  TGI: 21.8 µM
[4]
  TGI: 23.3 µM
[5]
  TGI: 16.3 µM
[6]
  TGI: 30.4 µM
[7]
  TGI: 46.3 µM
[8]
  TGI: 13.4 µM
[9]
  TGI: 29.4 µM
[12]
  TGI: 18.3 µM
[11]
  TGI: 27.9 µM

## c1ccc(P(CCP(c2ccccn2)c2ccccn2)c2ccccc2)cc1
[1]
  TGI: 54 µM
[2]
  TGI: > 100 µM
[3]
  TGI: > 100 µM
[4]
  TGI: > 100 µM
[5]
  TGI: > 100 µM
[6]
  TGI: > 100 µM
[8]
  TGI: > 100 µM
[9]
  TGI: > 100 µM
[10]
  TGI: > 100 µM
[12]
  TGI: > 100 µM
[11]
  TGI: > 100 µM

## O=C1CC(=O)NC(=NN2C(=O)/C(=C/c3ccccc3)N=C2c2ccccc2)N1
[1]
  TGI: > 100 µM
[2]
  TGI: > 100 µM
[3]
  TGI: > 100 µM
[4]
  TGI: 96.5 µM
[5]
  TGI: > 100 µM
[6]
  TGI: > 100 µM
[7]
  TGI: > 100 µM
[8]
  TGI: 77.1 µM
[9]
  TGI: > 100 µM
[10]
  TGI: > 100 µM
[12]
  TGI: > 100 µM
[11]
  TGI: > 100 µM

## CCN(CC)CCNC(=O)c1ccc(I)cc1
[1]
  TGI: > 100 µM
[2]
  TGI: > 100 µM
[3]
  TGI: > 100 µM
[5]
  TGI: > 100 µM
[6]
  TGI: > 100 µM
[7]
  TGI: > 100 µM
[8]
  TGI: > 100 µM
[9]
  TGI: > 100 µM
[10]
  TGI: > 100 µM
[12]
  TGI: > 100 µM
[11]
  TGI: > 100 µM

## COC1C(O)C(C)OC(OC2C(Oc3cccc4c(O)c5c(=O)oc6ccc(C)c7c(=O)oc(c34)c5c67)OC(C)C(O)C2O)C1O (stereo unspecified)
[1]
  GI50: 3.15 µM
  TGI: 12.6 µM and 7.14 µM
[2]
  GI50: 1.66 µM
  TGI: 5.15 µM and 4.17 µM
[3]
  TGI: 6.88 µM
[4]
  GI50: 1.35 µM
  TGI: 3.26 µM and 3.56 µM
[5]
  GI50: 0.647 µM
  TGI: 14.9 µM and 2.23 µM
[6]
  GI50: 1.41 µM
  TGI: 7.74 µM and 20.9 µM
[7]
  TGI: 10.7 µM and 8.63 µM
[8]
  TGI: 7.83 µM
[9]
  TGI: 46.1 µM
[10]
  TGI: 63.6 µM and 34 µM
[12]
  GI50: 1.1 µM
  TGI: 4.56 µM and 7.81 µM
[11]
  GI50: 1.65 µM
  TGI: 52.8 µM and 5.65 µM

## CCOC(=O)Cc1csc2[n+]1C(=O)/C(=C\c1cccc(Cl)c1Cl)S2
[1]
  TGI: 76.6 µM
[2]
  TGI: 32 µM
[3]
  TGI: 56.6 µM
[4]
  TGI: 21.8 µM
[5]
  TGI: 33.5 µM
[6]
  TGI: 37.8 µM
[7]
  TGI: 42.1 µM
[8]
  TGI: 49 µM
[9]
  TGI: 45.5 µM
[10]
  TGI: 31.9 µM
[12]
  TGI: 39.7 µM
[11]
  TGI: 35.9 µM

## O=C(CCCNc1nc(-c2ccccc2)cs1)c1cccs1
[1]
  TGI: > 100 µM
[2]
  TGI: > 100 µM
[3]
  TGI: > 100 µM
[4]
  TGI: > 100 µM
[5]
  TGI: > 100 µM
[6]
  TGI: > 100 µM
[7]
  TGI: > 100 µM
[8]
  TGI: > 100 µM
[9]
  TGI: > 100 µM
[10]
  TGI: > 100 µM
[12]
  TGI: > 100 µM
[11]
  TGI: > 100 µM

## CN(C)Cc1cc(C(C)(C)C)ccc1-c1ccc(C(C)(C)C)cc1CN(C)C
[1]
  TGI: > 100 µM
[2]
  TGI: > 100 µM
[3]
  TGI: > 100 µM
[4]
  TGI: > 100 µM
[5]
  TGI: > 100 µM
[6]
  TGI: > 100 µM
[7]
  TGI: > 100 µM
[8]
  TGI: > 100 µM
[9]
  TGI: > 100 µM
[10]
  TGI: > 100 µM
[12]
  TGI: 23.5 µM
[11]
  TGI: > 100 µM

## Cc1nc2c(nc1C)-c1c(c3c(n1C)C(=O)CCC3)C(=O)C2=O
[1]
  TGI: 2.14 µM
[2]
  TGI: 2.77 µM
[3]
  TGI: 0.322 µM
[4]
  TGI: 1.5 µM
[6]
  TGI: 0.52 µM
[7]
  TGI: 0.646 µM
[8]
  TGI: 0.289 µM
[9]
  TGI: 1.66 µM
[10]
  TGI: 1.36 µM
[12]
  TGI: 4.06 µM
[11]
  TGI: 0.638 µM
